Target: T1, BpsDsbA (oxidized) (Burkholderia pseudomallei, UniProt Q63Y08)
T1 construct: gene dsbA
Assay: biochemical

T1 sequence (Q63Y08 16-212 limits assumed): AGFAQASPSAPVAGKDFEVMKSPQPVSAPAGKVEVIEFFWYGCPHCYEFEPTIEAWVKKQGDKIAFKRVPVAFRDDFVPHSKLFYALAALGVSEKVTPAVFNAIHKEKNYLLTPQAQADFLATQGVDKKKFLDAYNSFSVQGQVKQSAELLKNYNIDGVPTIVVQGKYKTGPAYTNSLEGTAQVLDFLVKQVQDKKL

Compound: COc1ccc(S(=O)(=O)Nc2ccccc2)cc1 [compound 2, 4-methoxy-N-phenylbenzenesulfonamide]
- Kd: > 2 mM
